Biological target: T1, Human MTAP (Homo sapiens, UniProt Q13126)
T1 construct: six-histidine tag (His6) (N); made in house; host or cells: E. coli BL21 DE3
T1 sequence (Q13126 1-283): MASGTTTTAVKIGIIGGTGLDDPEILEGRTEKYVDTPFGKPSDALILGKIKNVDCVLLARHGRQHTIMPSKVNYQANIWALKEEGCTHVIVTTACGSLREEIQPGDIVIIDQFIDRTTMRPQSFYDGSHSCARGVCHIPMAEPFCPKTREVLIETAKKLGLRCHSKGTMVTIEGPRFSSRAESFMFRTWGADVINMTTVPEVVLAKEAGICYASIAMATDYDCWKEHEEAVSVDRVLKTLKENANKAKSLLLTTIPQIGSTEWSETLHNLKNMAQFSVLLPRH
Assay: MTAP substrate assay, coupled spectrophotometric (adenine, xanthine oxidase)
Type: biochemical
Details: 2 nM MTAP; for activity at 50 µM: 10 min, compound 50 uM, relative to MTA at 50 uM, read-out: MT-A—50: initial velocity as a percentage of the initial velocity with MTA as substrate; for MT-A—10: initial velocity as a percentage of the initial velocity with MTA as substrate: compound 10 uM, relative to MTA at 10 uM
Method in brief: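 Detection was xanthine oxidase-coupled (0.8 units/ml), reading adenine-derived absorbance at 305 nm over 10 min in potassium phosphate/DTT buffer at 37° C, with N-His6 enzyme purified from E. coli.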

SMILES | activity at 50 µM [%] | MT-A—10: initial velocity as a percentage of the initial velocity with MTA as substrate [%]
Nc1ncnc2c1ncn2[C@@H]1O[C@H](CSc2nc3cccnc3s2)[C@@H](O)[C@H]1O [2(G)(85), (2R, 3R, 4S, 5S)-2-(6-amino-9H-purin-9-yl)-5-[([1,3]thiozolo[5,4-b]pyridin-2-ylthio)-methyl]tetrahydrofuran-3,4-diol] | 2 | 10
COc1ccc(OC)c(SC[C@H]2O[C@@H](n3cnc4c(N)ncnc43)[C@H](O)[C@@H]2O)c1 [2(G)(24), (2R, 3R, 4S, 5S)-2-(6-amino-9H-purin-9-yl)-5-{[(2,5-dimethoxy-phenyl)-thio]methyl}tetrahydrofuran-3,4-diol] | 23 | 4
CC1OCCC1SC[C@H]1O[C@@H](n2cnc3c(N)ncnc32)[C@H](O)[C@@H]1O (stereo partly drawn) [2(G)(62), (2R, 3R, 4S, 5S)-2-(6-amino-9H-purin-9-yl)-5-{[(2-methyltetra-hydrofuran-3-yl)thio]methyl}tetrahydrofuran-3,4-diol] | 7 | 6
Cc1nccnc1SC[C@H]1O[C@@H](n2cnc3c(N)ncnc32)[C@H](O)[C@@H]1O [2(G)(100), (2R, 3R, 4S, 5S)-2-(6-amino-9H-purin-9-yl)-5-{[(3-methylpyrazin-2-yl)thio]methyl}tetrahydro-furan-3,4-diol] | 10 | 7
Nc1ncnc2c1ncn2[C@@H]1O[C@H](CSc2nc3ccc(Cl)cc3o2)[C@@H](O)[C@H]1O [2(G)(153), (2R, 3R, 4S, 5S)-2-(6-amino-9H-purin-9-yl)-5-{[(6-chloro-1,3-benz-oxazol-2-yl)thio]methyl}tetrahydrofuran-3,4-diol] | 22.5 | 10
COc1ccc2[nH]c(SC[C@H]3O[C@@H](n4cnc5c(N)ncnc54)[C@H](O)[C@@H]3O)nc2c1 [2(G)(118), (2R, 3R, 4S, 5S)-2-(6-amino-9H-purin-9-yl)-5-{[(5-methoxy-1H-benzimidazol-2-yl)thio]methyl}tetrahydrofuran-3,4-diol] | 2.5 | 2.5
CC(C)(C)c1cc(O)nc(SC[C@H]2O[C@@H](n3cnc4c(N)ncnc43)[C@H](O)[C@@H]2O)n1 [2(G)(165), (2R, 3R, 4S, 5S)-2-(6-amino-9H-purin-9-yl)-5-{[(4-tert-butyl-6-hydroxypyrimidin-2-yl)thio]methyl}tetrahydro-furan-3,4-diol] | 33.5 | 25
Cc1cc(=O)oc2cc(SC[C@H]3O[C@@H](n4cnc5c(N)ncnc54)[C@H](O)[C@@H]3O)ccc12 [2(G)(40), 7-({[(2S, 3S, 4R, 5R)-5-(6-amino-9H-purin-9-yl)-3,4-dihydroxytetrahydro-furan-2-yl]methyl}thio)-4-methyl-2H-chromen-2-one] | 10 | 6
Cc1cc(C)cc(SC[C@H]2O[C@@H](n3cnc4c(N)ncnc43)[C@H](O)[C@@H]2O)c1 [2(G)(148), (2R, 3R, 4S, 5S)-2-(6-amino-9H-purin-9-yl)-5-{[(3,5-dimethylphenyl)-thio]methyl}tetrahydro-furan-3,4-diol] | 15 | 2
COC(=O)c1cccc(SC[C@H]2O[C@@H](n3cnc4c(N)ncnc43)[C@H](O)[C@@H]2O)c1 [2(G)(109), methyl 3-({[(2S, 3S, 4R, 5R)-5-(6-amino-9H-purin-9-yl)-1,3,4-dihydroxytetra-hydrofuran-2-yl]methyl}thio)benzoate] | 8 | 8
Cn1ccnc1SC[C@H]1O[C@@H](n2cnc3c(N)ncnc32)[C@H](O)[C@@H]1O [2(G)(120), (2R, 3R, 4S, 5S)-2-(6-amino-9H-purin-9-yl)-5-{[(1-methyl-1H-imidazol-2-yl)thio)methyl}tetra-hydrofuran-3,4-diol] | 3 | 1
COc1ccc2sc(SC[C@H]3O[C@@H](n4cnc5c(N)ncnc54)[C@H](O)[C@@H]3O)nc2c1 [2(G)(86), (2R, 3R, 4S, 5S)-2-(6-amino-9H-purin-9-yl)-5-{[(5-methoxy-1,3-benzothiozol-2-yl)thio]-methyl}tetrahydro-furan-3,4-diol] | 33 | 31
Nc1ncnc2c1ncn2[C@@H]1O[C@H](CSc2ccc([N+](=O)[O-])cn2)[C@@H](O)[C@H]1O [2(G)(105), (2R, 3R, 4S, 5S)-2-(6-amino-9H-purin-9-yl)-5-{[(5-nitropyridin-2-yl)thio]methyl}tetrahydro-furan-3,4-diol] | 21 | 17
CC(O)C(C)SC[C@H]1O[C@@H](n2cnc3c(N)ncnc32)[C@H](O)[C@@H]1O (stereo partly drawn) [2(G)(144), (2R, 3R, 4S, 5S)-2-(6-amino-9H-purin-9-yl)-5-{[(2-hydroxy-1-methyl-propyl)thio]methyl}tetra-hydrofuran-3,4-diol] | 7.5 | 18

Next, values leading:

activity at 50 µM [%] | MT-A—10: initial velocity as a percentage of the initial velocity with MTA as substrate [%] | SMILES
47 | 18 | Nc1cccnc1SC[C@H]1O[C@@H](n2cnc3c(N)ncnc32)[C@H](O)[C@@H]1O [2(G)(59), (2R, 3R, 4S, 5S)-2-(6-amino-9H-purin-9-yl)-5-{[(3-aminopyridin-2-yl)thio]methyl}tetra-hydrofuran-3,4-diol]
31 | 21 | Nc1ncnc2c1ncn2[C@@H]1O[C@H](CSc2ccc(F)cc2)[C@@H](O)[C@H]1O [2(G)(23), (2R, 3R, 4S, 5S)-2-(6-amino-9H-purin-9-yl)-5-{[(4-fluorophenyl)-thio]methyl}tetra-hydrafuran-3,4-diol]
36 | 16 | Nc1ccc2[nH]c(SC[C@H]3O[C@@H](n4cnc5c(N)ncnc54)[C@H](O)[C@@H]3O)nc2c1 [2(G)(51), (2R, 3R, 4S, 5S)-2-(6-amino-9H-purin-9-yl)-5-{[(5-amino-1H-benzoimidazol-2-yl)thio]methyl}tetrahydro-furan-3,4-diol]
47 | 38 | Nc1ncnc2c1ncn2[C@@H]1O[C@H](CSc2ccc3ccccc3n2)[C@@H](O)[C@H]1O [2(G)(42), (2R, 3R, 4S, 5S)-2-(6-amino-9H-purin-9-yl)-5-[(quinolin-2-ylthio)methyl]-tetrahydrofuran-3,4-diol]
6 | 5 | Nc1ncnc2c1ncn2[C@@H]1O[C@H](CSc2cc(Cl)ccc2Cl)[C@@H](O)[C@H]1O [2(G)(97), (2R, 3R, 4S, 5S)-2-(6-amino-9H-purin-9-yl)-5-{[(2,5-dichlorophenyl)-thio]methyl}tetrahydro-furan-3,4-diol]
18 | 18 | Nc1ncnc2c1ncn2[C@@H]1O[C@H](CSCCc2c[nH]c3ccccc23)[C@@H](O)[C@H]1O [2(G)(81), (2R, 3R, 4S, 5S)-2-(6-amino-9H-purin-9-yl)-5-({[2-(1H-indol-3-yl)ethyl]thio}methyl)-tetrahydrofuran-3,4-diol]
5 | 3 | Nc1ccccc1SC[C@H]1O[C@@H](n2cnc3c(N)ncnc32)[C@H](O)[C@@H]1O [2(G)(2), (2R, 3R, 4S, 5S)-2-(6-amino-9H-purin-9-yl)-5-{[(2-amino-phenyl)thio]methyl}tetrahydrofuran-3,4-diol]
23 | 8 | Nc1ncnc2c1ncn2[C@@H]1O[C@H](CSc2ccccc2C2=NCCCN2)[C@@H](O)[C@H]1O [2(G)(1), (2R, 3R, 4S, 5S)-2-(6-amino-9H-purin-9-yl)-5-({[2-(1,4,5,6-tetrahydropyrimidin-2-yl)phenyl]thio}methyl)-tetrahydrofuran-3,4-diol]
51 | 47 | Nc1ncnc2c1ncn2[C@@H]1O[C@H](CSCc2ccc(Cl)cc2)[C@@H](O)[C@H]1O [2(G)(124), (2R, 3R, 4S, 5S)-2-(6-amino-9H-purin-9-yl)-5-[{(4-chlorobenzyl)thio]-methyl}tetrahydrofuran-3,4-diol]
33 | 6 | CC(SC[C@H]1O[C@@H](n2cnc3c(N)ncnc32)[C@H](O)[C@@H]1O)c1ccccc1 (stereo partly drawn) [2(G)(156), (2R, 3R, 4S, 5S)-2-(6-amino-9H-purin-9-yl)-5-{[(1-phenylethyl)thio]-methyl}tetrahydrofuran-3,4-diol]
23 | 7 | Nc1ncnc2c1ncn2[C@@H]1O[C@H](CSc2ccccc2O)[C@@H](O)[C@H]1O [2(G)(27), (2R, 3R, 4S, 5S)-2-(6-amino-9H-purin-9-yl)-5-{[(2-hydroxyphenyl)-thio]methyl}tetrahydro-furan-3,4-diol]

— patent US20040043959A1, “Combination therapies for treating methylthioadenosine phosphorylase deficient cells” (priority 2002, published 2004)
